Results from patent publication US8343987B2, “Heterocyclic derivatives” (Bayer Intellectual Property GmbH, priority 2004, dated 2013).

Each compound was assayed against T1, human neutrophil elastase (HNE) (Homo sapiens, UniProt P08246) (assay: In vitro inhibition of HNE using a fluorogenic peptide substrate (Example I-A)). Settings: substrate MeOSuc-Ala-Ala-Pro-Val-AMC, continuous read-out, 384 MTP format.
T1 construct: purchased SERVA Electrophoresis GmbH, Heidelberg, Germany #20927.01
T1 sequence (P08246 30-267): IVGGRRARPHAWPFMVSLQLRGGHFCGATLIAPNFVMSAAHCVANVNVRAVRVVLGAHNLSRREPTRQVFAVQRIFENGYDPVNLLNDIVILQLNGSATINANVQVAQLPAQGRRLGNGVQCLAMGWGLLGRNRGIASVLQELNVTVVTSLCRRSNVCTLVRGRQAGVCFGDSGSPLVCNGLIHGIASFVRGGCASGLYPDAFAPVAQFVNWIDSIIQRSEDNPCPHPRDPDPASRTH
Format: biochemical
Protocol: The test solution is prepared by mixing 10 μl of test compound dilution, 20 μl of HNE enzyme dilution (final concentration 8-0.4 μU/ml, routinely 2.1 μU/ml) and 20 μl of substrate dilution (final concentration 1 mM-1 μM, routinely 20 μM), respectively. The solution is incubated for 0-2 hrs at 37° C. (routinely one hour). The fluorescence of the liberated AMC due to the enzymatic reaction is measured at 37° C. (TECAN spectra fluor plus plate reader). […] IC50 values are determined by RFU-versus-[I] plots. Km and Km(app.) values are determined by Lineweaver-Burk plots and converted to K1 values by Dixon plots.

IC50 [nM]	Compound
10	CC(=O)C1=C(C)N(c2cccc(C(F)(F)F)c2)C(=O)N(CC(=O)NS(=O)(=O)c2ccc(C#N)cc2)[C@@H]1c1ccc(C#N)cc1 [Example 74]
20	CC1=C(C(=O)c2ccco2)C(c2ccc(C#N)cc2)N(CC(=O)O)C(=O)N1c1cccc(C(F)(F)F)c1 (stereo not shown) [Example 29A, [6-(4-Cyanophenyl)-5-(2-furoyl)-4-methyl-2-oxo-3-[3-(trifluoromethyl)pheny-l]-3,6-dihydropyrimidin-1(2H)-yl]acetic acid]
30	COC(=O)c1cccc(CN2C(=O)N(c3cccc(C(F)(F)F)c3)C(C)=C(C(C)=O)C2c2ccc(C#N)cc2)c1 (stereo not shown) [Example 1, Methyl 3-{[5-acetyl-6-(4-cyanophenyl)-4-methyl-2-oxo-3-[3-(trifluoromethyl-)phenyl]-3,6-dihydropyrimidin-1(2H)-yl]methyl}benzoate]
130	C=CCOC(=O)C1=C(C)N(c2cccc(C(F)(F)F)c2)C(=O)N(C2(C(=O)OCC)CC2)C1c1ccc(C#N)cc1 (stereo not shown) [Example 61]
70	C=CCOC(=O)C1=C(C)N(c2cccc(C(F)(F)F)c2)C(=O)N(CC(=O)NS(=O)(=O)c2ccc(C(F)(F)F)cc2)C1c1ccc(C#N)cc1 (stereo not shown) [Example 67]
8	CC(=O)C1=C(C)N(c2cccc(C(F)(F)F)c2)C(=O)N(Cc2ccc(C(=O)O)cc2)[C@@H]1c1ccc(C#N)cc1 [Example 22]
30	CC1=C(C(=O)c2ccco2)C(c2ccc(C#N)cc2)N(Cc2cccc(C(=O)O)c2)C(=O)N1c1cccc(C(F)(F)F)c1 (stereo not shown) [Example 44]
20	CC(=O)C1=C(C)N(c2cccc(C(F)(F)F)c2)C(=O)N(Cc2ccc(C(CC(C)C)C(=O)O)cc2)C1c1ccc(C#N)cc1 (stereo not shown) [Example 19]
70	CC1=C(C#N)C(c2ccc(C#N)nc2)NC(=O)N1c1cccc(C(F)(F)F)c1 (stereo not shown) [Example 19A, 4-(6-Cyanopyridin-3-yl)-6-methyl-2-oxo-1-[3-(trifluoromethyl)phenyl]-1,2,3-,4-tetrahydro-pyrimidine-5-carbonitrile]
120	CC1=C(C(=O)O)C(c2ccc(C#N)cc2)N(Cc2cccc(/C=C/C(=O)O)c2)C(=O)N1c1cccc(C(F)(F)F)c1 (stereo not shown) [Example 39, 3-{3-[(E)-2-Carboxyvinyl]benzyl}-4-(4-cyanophenyl)-6-methyl-2-oxo-1-[3-(trifluoromethyl)-phenyl]-1,2,3,4-tetrahydropyrimidine-5-carboxylic acid]
60	CC1=C(C(=O)c2cccnc2)C(c2ccc(C#N)cc2)NC(=O)N1c1cccc(C(F)(F)F)c1 (stereo not shown) [Example 21A, 4-{6-Methyl-2-oxo-5-(pyridin-3-ylcarbonyl)-1-[3-(trifluoromethyl)phenyl]-1-,2,3,4-tetrahydro-pyrimidin-4-yl}benzonitrile]
10	CC(=O)C1=C(C)N(c2cccc(C(F)(F)F)c2)C(=O)N(/C=C/C(=O)O)C1c1ccc(C#N)cc1 (stereo not shown) [Example 24]
20	CC1=C(C(=O)c2cccnc2)C(c2ccc(C#N)cc2)N(CC(=O)NS(=O)(=O)CC(F)(F)F)C(=O)N1c1cccc(C(F)(F)F)c1 (stereo not shown) [Example 55, 2-[6-(4-Cyanophenyl)-4-methyl-2-oxo-5-(pyridin-3-ylcarbonyl)-3-[3-(trifluoromethyl)phenyl]-3,6-dihydropyrimidin-1(2H)-yl]-N-[(2,2,2-trifluoroethyl)sulfonyl]acetamide]
10	CC1=C(C(=O)c2cccnc2)C(c2ccc(C#N)cc2)N(CC(=O)O)C(=O)N1c1cccc(C(F)(F)F)c1 (stereo not shown) [Example 31A, [6-(4-Cyanophenyl)-4-methyl-2-oxo-5-(pyridin-3-ylcarbonyl)-3-[3-(trifluoro-methyl)phenyl]-3,6-dihydropyrimidin-1(2H)-yl]acetic acid]

These compounds were tested on human polymorphonuclear cells (PMNs) (assay: In vitro PMN elastolysis assay (Example II-A)). Settings: at 1.2 μM; mean±s.e.m.; n=3 different donors at 3.6×10^5 cells per well.
Format: cell-based
Protocol: This assay is used to determine the elastolytic potential of human polymorphonuclear cells (PMNs) and assess the proportion of degradation due to neutrophil elastase [cf. Z. W. She et al., Am. J. Respir. Cell. Mol. Biol. 9386-392 (1993)].
Tritiated elastin, in suspension, is coated on to a 96 well plate at 10 μg per well. Test and reference [ZD-0892 (J. Med. Chem. 40, 1876-1885, 3173-3181 (1997), WO 95/21855) and α1 protease inhibitor (α1PI)] compounds are added to the wells at the appropriate concentrations. Human PMNs are separated from peripheral venous blood of healthy donors and resuspended in culture media. The neutrophils are added to the coated wells at concentrations ranging between […] cells per well. Porcine pancreatic elastase (1.3 μM) is used as a positive control for the assay, and α1PI (1.2 μM) is used as the positive inhibitor of neutrophil elastase. The cellular control is PMNs without compound at each appropriate cell density. The cells plus compounds are incubated in a humidified incubator at 37° C. for 4 hours. The plates are centrifuged to allow the harvest of cell supernatant only. The supernatant is transferred in 75 μl volumes to corresponding wells of a 96 well Lumaplate™ (solid scintillant containing plates). The plates are dried until no liquid is visible in the wells and read in a beta counter for 3 minutes per well. […]

Compound	inhibition of 3H-elastin elastolysis [%]
α1PI: α1 protease inhibitor, used as the positive inhibitor of neutrophil elastase	83.46±3.97

Same assay, conditions: mean±s.e.m.; n=2 different donors at 3.6×10^5 cells per well

IC50 [nM]	Compound
45.5 ± 7.75	COc1ccc(C(=O)N[C@H](C(=O)N2CCC[C@H]2C(=O)N[C@H](C(=O)C(F)(F)F)C(C)C)C(C)C)cc1 [ZD-0892]
